From the supplement of paper PMC10883282

How the values were obtained:
Test in all cases: relative viability vs DMSO control (72 h) (fraction); higher = more viable cells
[1] = test system: RD-ES
Outline: (§1)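 Sarcoma cell lines were plated in 384 wells to reach 80–90% confluence, treated after 24 h with 2.5 µl of serially diluted compound and held 72 h at 37 °C, 5% CO2. Relative viability was taken as percent growth from ATPLite readings, averaged over up to triplicate wells. The values were rescaled so that 1 marks full and 0 marks none.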

[2] = test system: HS729
Outline: as §1

[3] = test system: RD
Outline: as §1

[4] = test system: HT1080
Outline: as §1

[5] = test system: SW684
Outline: as §1

[6] = test system: SW1353
Outline: as §1

[7] = test system: KHOS-240S
Outline: as §1

[8] = test system: SYO-1
Outline: as §1

[9] = test system: KHOS-NP
Outline: as §1

[10] = test system: SW872
Outline: as §1

[11] = test system: SK-LMS-1
Outline: as §1

[12] = test system: G401
Outline: as §1

C[C@@H](Oc1cc(-c2cnn(C3CCNCC3)c2)cnc1N)c1c(Cl)ccc(F)c1Cl [Crizotinib]
Conditions | relative viability
[1], 0.00017 µM | 0.969
[1], 0.00051 µM | 0.96
[1], 0.00152 µM | 0.963
[1], 0.00457 µM | 0.95
[1], 0.01372 µM | 0.963
[1], 0.04115 µM | 0.972
[1], 0.1235 µM | 0.911
[1], 0.3704 µM | 0.745
[1], 1.111 µM | 0.26
[1], 3.333 µM | 0.0918
[1], 10 µM | 0.00543
[2], 0.00017 µM | 0.998
[2], 0.00051 µM | 1.01
[2], 0.00152 µM | 0.9714
[2], 0.00457 µM | 0.98
[2], 0.01372 µM | 0.9284
[2], 0.04115 µM | 0.947
[2], 0.1235 µM | 0.922
[2], 0.3704 µM | 0.872
[2], 1.111 µM | 0.744
[2], 3.333 µM | 0.58
[2], 10 µM | 0.0222
[3], 0.00017 µM | 1.08
[3], 0.00051 µM | 1.07
[3], 0.00152 µM | 1.106
[3], 0.00457 µM | 1.09
[3], 0.01372 µM | 1.1
[3], 0.04115 µM | 1.1
[3], 0.1235 µM | 1.09
[3], 0.3704 µM | 0.88
[3], 1.111 µM | 0.626
[3], 3.333 µM | 0.441
[3], 10 µM | 0.00437
[4], 0.00017 µM | 1.07
[4], 0.00051 µM | 1.05
[4], 0.00152 µM | 1.07
[4], 0.00457 µM | 1.09
[4], 0.01372 µM | 1.07
[4], 0.04115 µM | 1.07
[4], 0.1235 µM | 1.06
[4], 0.3704 µM | 1.07
[4], 1.111 µM | 1.01
[4], 3.333 µM | 0.754
[4], 10 µM | 0.00533
[5], 0.00017 µM | 1.16
[5], 0.00051 µM | 1.19
[5], 0.00152 µM | 1.17
[5], 0.00457 µM | 1.23
[5], 0.01372 µM | 1.21
[5], 0.04115 µM | 1.22
[5], 0.1235 µM | 1.17
[5], 0.3704 µM | 1.09
[5], 1.111 µM | 0.976
[5], 3.333 µM | 0.737
[5], 10 µM | 0.0253
[6], 0.00017 µM | 1
[6], 0.00051 µM | 1
[6], 0.00152 µM | 1.018
[6], 0.00457 µM | 0.987
[6], 0.01372 µM | 1.02
[6], 0.04115 µM | 0.996
[6], 0.1235 µM | 1.03
[6], 0.3704 µM | 1.01
[6], 1.111 µM | 0.999
[6], 3.333 µM | 0.679
[6], 10 µM | 0.00907
[7], 0.00017 µM | 1.04
[7], 0.00051 µM | 1.05
[7], 0.00152 µM | 1.06
[7], 0.00457 µM | 1.05
[7], 0.01372 µM | 1.05
[7], 0.04115 µM | 1.05
[7], 0.1235 µM | 1.04
[7], 0.3704 µM | 0.992
[7], 1.111 µM | 0.771
[7], 3.333 µM | 0.566
[7], 10 µM | 0.0657
[8], 0.00017 µM | 0.957
[8], 0.00051 µM | 0.982
[8], 0.00152 µM | 1
[8], 0.00457 µM | 0.99
[8], 0.01372 µM | 0.973
[8], 0.04115 µM | 0.944
[8], 0.1235 µM | 0.855
[8], 0.3704 µM | 0.655
[8], 1.111 µM | 0.346
[8], 3.333 µM | 0.13
[8], 10 µM | -0.00763
[9], 0.00017 µM | 1.11
[9], 0.00051 µM | 1.107
[9], 0.00152 µM | 1.09
[9], 0.00457 µM | 1.11
[9], 0.01372 µM | 1.1
[9], 0.04115 µM | 1.1
[9], 0.1235 µM | 1.103
[9], 0.3704 µM | 1.103
[9], 1.111 µM | 1.08
[9], 3.333 µM | 0.974
[9], 10 µM | 0.0806
[10], 0.00017 µM | 1.06
[10], 0.00051 µM | 1.07
[10], 0.00152 µM | 1.09
[10], 0.00457 µM | 1.06
[10], 0.01372 µM | 1.08
[10], 0.04115 µM | 1.09
[10], 0.1235 µM | 1.014
[10], 0.3704 µM | 0.921
[10], 1.111 µM | 0.644
[10], 3.333 µM | 0.463
[10], 10 µM | -0.00847
[11], 0.00017 µM | 1.03
[11], 0.00051 µM | 1.02
[11], 0.00152 µM | 1.01
[11], 0.00457 µM | 1.01
[11], 0.01372 µM | 0.996
[11], 0.04115 µM | 0.921
[11], 0.1235 µM | 0.641
[11], 0.3704 µM | 0.571
[11], 1.111 µM | 0.525
[11], 3.333 µM | 0.335
[11], 10 µM | 0.0176
[12], 0.00017 µM | 1.01
[12], 0.00051 µM | 0.995
[12], 0.00152 µM | 1.01
[12], 0.00457 µM | 1.01
[12], 0.01372 µM | 1.01
[12], 0.04115 µM | 1.01
[12], 0.1235 µM | 0.9894
[12], 0.3704 µM | 0.915
[12], 1.111 µM | 0.745
[12], 3.333 µM | 0.417
[12], 10 µM | 0.000367

COc1cc2ncnc(Nc3ccc(F)c(Cl)c3)c2cc1NC(=O)/C=C/CN1CCCCC1 [Dacomitinib]
Conditions | relative viability
[1], 0.00017 µM | 1.02
[1], 0.00051 µM | 1.01
[1], 0.00152 µM | 1.01
[1], 0.00457 µM | 1.02
[1], 0.01372 µM | 1.02
[1], 0.04115 µM | 1.01
[1], 0.1235 µM | 0.992
[1], 0.3704 µM | 0.9359
[1], 1.111 µM | 0.832
[1], 3.333 µM | 0.474
[1], 10 µM | 0.0093
[2], 0.00017 µM | 1.08
[2], 0.00051 µM | 1.04
[2], 0.00152 µM | 1.03
[2], 0.00457 µM | 1.04
[2], 0.01372 µM | 1.01
[2], 0.04115 µM | 0.975
[2], 0.1235 µM | 1
[2], 0.3704 µM | 0.894
[2], 1.111 µM | 0.844
[2], 3.333 µM | 0.737
[2], 10 µM | 0.318
[3], 0.00017 µM | 1.103
[3], 0.00051 µM | 1.09
[3], 0.00152 µM | 1.12
[3], 0.00457 µM | 1.141
[3], 0.01372 µM | 1.13
[3], 0.04115 µM | 1.12
[3], 0.1235 µM | 1.12
[3], 0.3704 µM | 1.08
[3], 1.111 µM | 0.976
[3], 3.333 µM | 0.347
[3], 10 µM | 0.00617
[4], 0.00017 µM | 1.12
[4], 0.00051 µM | 1.11
[4], 0.00152 µM | 1.11
[4], 0.00457 µM | 1.11
[4], 0.01372 µM | 1.08
[4], 0.04115 µM | 1.12
[4], 0.1235 µM | 1.12
[4], 0.3704 µM | 1.13
[4], 1.111 µM | 1.15
[4], 3.333 µM | 0.769
[4], 10 µM | 0.0364
[5], 0.00017 µM | 1.22
[5], 0.00051 µM | 1.23
[5], 0.00152 µM | 1.208
[5], 0.00457 µM | 1.18
[5], 0.01372 µM | 1.18
[5], 0.04115 µM | 1.15
[5], 0.1235 µM | 1.22
[5], 0.3704 µM | 1.08
[5], 1.111 µM | 1.01
[5], 3.333 µM | 0.599
[5], 10 µM | -0.00213
[6], 0.00017 µM | 1.06
[6], 0.00051 µM | 1.05
[6], 0.00152 µM | 1.02
[6], 0.00457 µM | 0.9671
[6], 0.01372 µM | 0.927
[6], 0.04115 µM | 0.884
[6], 0.1235 µM | 0.8331
[6], 0.3704 µM | 0.764
[6], 1.111 µM | 0.665
[6], 3.333 µM | 0.401
[6], 10 µM | 0.0104
[7], 0.00017 µM | 1.08
[7], 0.00051 µM | 1.09
[7], 0.00152 µM | 1.09
[7], 0.00457 µM | 1.06
[7], 0.01372 µM | 1.06
[7], 0.04115 µM | 1.06
[7], 0.1235 µM | 1.08
[7], 0.3704 µM | 1.01
[7], 1.111 µM | 0.936
[7], 3.333 µM | 0.579
[7], 10 µM | 0.0145
[8], 0.00017 µM | 1.02
[8], 0.00051 µM | 1.02
[8], 0.00152 µM | 1.01
[8], 0.00457 µM | 1.02
[8], 0.01372 µM | 1
[8], 0.04115 µM | 1.01
[8], 0.1235 µM | 0.986
[8], 0.3704 µM | 0.888
[8], 1.111 µM | 0.824
[8], 3.333 µM | 0.287
[8], 10 µM | -0.0103
[9], 0.00017 µM | 1.09
[9], 0.00051 µM | 1.09
[9], 0.00152 µM | 1.1
[9], 0.00457 µM | 1.09
[9], 0.01372 µM | 1.08
[9], 0.04115 µM | 1.086
[9], 0.1235 µM | 1.08
[9], 0.3704 µM | 1.08
[9], 1.111 µM | 1.08
[9], 3.333 µM | 0.985
[9], 10 µM | 0.0233
[10], 0.00017 µM | 1.1
[10], 0.00051 µM | 1.12
[10], 0.00152 µM | 1.1
[10], 0.00457 µM | 1.11
[10], 0.01372 µM | 1.11
[10], 0.04115 µM | 1.08
[10], 0.1235 µM | 1.05
[10], 0.3704 µM | 1.03
[10], 1.111 µM | 0.87
[10], 3.333 µM | 0.508
[10], 10 µM | 0.043
[11], 0.00017 µM | 1.11
[11], 0.00051 µM | 1.11
[11], 0.00152 µM | 1.11
[11], 0.00457 µM | 1.13
[11], 0.01372 µM | 1.09
[11], 0.04115 µM | 1.08
[11], 0.1235 µM | 1.04
[11], 0.3704 µM | 1.03
[11], 1.111 µM | 0.916
[11], 3.333 µM | 0.701
[11], 10 µM | 0.013
[12], 0.00017 µM | 1.02
[12], 0.00051 µM | 1.01
[12], 0.00152 µM | 1.03
[12], 0.00457 µM | 1.03
[12], 0.01372 µM | 1.01
[12], 0.04115 µM | 0.999
[12], 0.1235 µM | 1.02
[12], 0.3704 µM | 0.997
[12], 1.111 µM | 0.849
[12], 3.333 µM | 0.548
[12], 10 µM | 0.00623
